Assay results reported in PubChem BioAssay AID1963833 (Molecular Pharmacology Branch, DTP, NCI, 2024).

System: 883617-216-R-J1-PDC complex spheroid viability
Test: Anticancer human tumor 883617-216-R-J1-PDC patient-derived bladder carcinoma cell line growth inhibition [POLQ]
Conditions: for IC50: curve of first compound; for viability, T/C: stronger effect = lower value
Procedure, shortened: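 PDC + HUVEC + MSC complex spheroids; POLQ inhibitors ± partner drugs; top conc. at/near clinical Cmax, else 10 microM (SN-38 1 microM), half-log dilutions; 37 degrees C, 5% CO2.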

[1] = second compound 0.0316 µM, first compound 0.00949 µM
[2] = second compound 0.0316 µM, first compound 0.03 µM
[3] = second compound 0.0316 µM, first compound 0.0949 µM
[4] = second compound 0.0316 µM, first compound 0.3 µM
[5] = second compound 0.0316 µM, first compound 0.949 µM
[6] = second compound 0.0316 µM, first compound 3 µM
[7] = second compound 0.1 µM, first compound 0.00949 µM
[8] = second compound 0.1 µM, first compound 0.03 µM
[9] = second compound 0.1 µM, first compound 0.0949 µM
[10] = second compound 0.1 µM, first compound 0.3 µM
[11] = second compound 0.1 µM, first compound 0.949 µM
[12] = second compound 0.1 µM, first compound 3 µM
[13] = second compound 0.316 µM, first compound 0.00949 µM
[14] = second compound 0.316 µM, first compound 0.03 µM
[15] = second compound 0.316 µM, first compound 0.0949 µM
[16] = second compound 0.316 µM, first compound 0.3 µM
[17] = second compound 0.316 µM, first compound 0.949 µM
[18] = second compound 0.316 µM, first compound 3 µM
[19] = second compound 1 µM, first compound 0.00949 µM
[20] = second compound 1 µM, first compound 0.03 µM
[21] = second compound 1 µM, first compound 0.0949 µM
[22] = second compound 1 µM, first compound 0.3 µM
[23] = second compound 1 µM, first compound 0.949 µM
[24] = second compound 1 µM, first compound 3 µM
[25] = second compound 3.16 µM, first compound 0.00949 µM
[26] = second compound 3.16 µM, first compound 0.03 µM
[27] = second compound 3.16 µM, first compound 0.0949 µM
[28] = second compound 3.16 µM, first compound 0.3 µM
[29] = second compound 3.16 µM, first compound 0.949 µM
[30] = second compound 3.16 µM, first compound 3 µM
[31] = second compound 10 µM, first compound 0.00949 µM
[32] = second compound 10 µM, first compound 0.03 µM
[33] = second compound 10 µM, first compound 0.0949 µM
[34] = second compound 10 µM, first compound 0.3 µM
[35] = second compound 10 µM, first compound 0.949 µM
[36] = second compound 10 µM, first compound 3 µM
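Further: spheroids exposed to compounds for seven days before readout.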
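Wherever viability, T/C is given: 100% = DMSO vehicle control viability.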

Question: With `CNCc1ccc(-c2[nH]c3cc(F)cc4c3c2CCNC4=O)cc1` + COC1C(OC(N)=O)C(O)C(Oc2ccc3c(O)c(NC(=O)c4ccc(O)c(CC=C(C)C)c4)c(=O)oc3c2C)OC1(C)C as the compound, how does the IC50 (second compound 0.0316 µM) read?
Answer: The IC50 was over 10000 nM.

Question: What about the IC50 (second compound 0.1 µM) of the same compound?
Answer: Its IC50 is over 10000 nM.

Question: What about the IC50 (second compound 0.316 µM) of the same compound?
Answer: Its IC50 is over 10000 nM.

Question: What about the IC50 (second compound 1 µM) of the same compound?
Answer: Its IC50 is over 10000 nM.

Question: What about the IC50 (second compound 3.16 µM) of the same compound?
Answer: The IC50 was over 10000 nM.

Question: And the IC50 (second compound 10 µM)?
Answer: The IC50 was over 10000 nM.

Question: What about the viability, T/C (second compound 0.0316 µM, first compound 0.0316 µM) of the same compound?
Answer: Its viability, T/C is 109%.

Question: And the viability, T/C (second compound 0.0316 µM, first compound 0.1 µM)?
Answer: The viability, T/C was 104%.

Question: What about the viability, T/C (second compound 0.0316 µM, first compound 0.316 µM) of the same compound?
Answer: The viability, T/C was 101%.

Question: What about the viability, T/C (second compound 0.0316 µM, first compound 1 µM) of the same compound?
Answer: The viability, T/C was 97.9%.

Question: And the viability, T/C (second compound 0.0316 µM, first compound 3.16 µM)?
Answer: The viability, T/C was 95.3%.

Question: And the viability, T/C (second compound 0.0316 µM, first compound 10 µM)?
Answer: The viability, T/C was 80.7%.

Question: And the viability, T/C (second compound 0.1 µM, first compound 0.0316 µM)?
Answer: Its viability, T/C is 107%.

Question: And the viability, T/C (second compound 0.1 µM, first compound 0.1 µM)?
Answer: The viability, T/C was 97.3%.

Question: And the viability, T/C (second compound 0.1 µM, first compound 0.316 µM)?
Answer: Its viability, T/C is 107%.

Question: What about the viability, T/C (second compound 0.1 µM, first compound 1 µM) of the same compound?
Answer: The viability, T/C was 101%.

Question: And the viability, T/C (second compound 0.1 µM, first compound 3.16 µM)?
Answer: Its viability, T/C is 104%.

Question: And the viability, T/C (second compound 0.1 µM, first compound 10 µM)?
Answer: The viability, T/C was 98.6%.

Question: What about the viability, T/C (second compound 0.316 µM, first compound 0.0316 µM) of the same compound?
Answer: The viability, T/C was 116%.

Question: What about the viability, T/C (second compound 0.316 µM, first compound 0.1 µM) of the same compound?
Answer: Its viability, T/C is 98.9%.

Question: What about the viability, T/C (second compound 0.316 µM, first compound 0.316 µM) of the same compound?
Answer: Its viability, T/C is 104%.

Question: And the viability, T/C (second compound 0.316 µM, first compound 1 µM)?
Answer: The viability, T/C was 106%.

Question: What about the viability, T/C (second compound 0.316 µM, first compound 3.16 µM) of the same compound?
Answer: Its viability, T/C is 103%.

Question: What about the viability, T/C (second compound 0.316 µM, first compound 10 µM) of the same compound?
Answer: Its viability, T/C is 94%.

Question: And the viability, T/C (second compound 1 µM, first compound 0.0316 µM)?
Answer: The viability, T/C was 104%.

Question: What about the viability, T/C (second compound 1 µM, first compound 0.1 µM) of the same compound?
Answer: Its viability, T/C is 104%.

Question: And the viability, T/C (second compound 1 µM, first compound 0.316 µM)?
Answer: The viability, T/C was 103%.

Question: And the viability, T/C (second compound 1 µM, first compound 1 µM)?
Answer: The viability, T/C was 90.4%.

Question: What about the viability, T/C (second compound 1 µM, first compound 3.16 µM) of the same compound?
Answer: The viability, T/C was 98%.

Question: What about the viability, T/C (second compound 1 µM, first compound 10 µM) of the same compound?
Answer: The viability, T/C was 87.9%.

Question: And the viability, T/C (second compound 3.16 µM, first compound 0.0316 µM)?
Answer: The viability, T/C was 103%.

Question: And the viability, T/C (second compound 3.16 µM, first compound 0.1 µM)?
Answer: Its viability, T/C is 92.8%.

Question: And the viability, T/C (second compound 3.16 µM, first compound 0.316 µM)?
Answer: Its viability, T/C is 102%.

Question: And the viability, T/C (second compound 3.16 µM, first compound 1 µM)?
Answer: The viability, T/C was 87.2%.

Question: What about the viability, T/C (second compound 3.16 µM, first compound 3.16 µM) of the same compound?
Answer: Its viability, T/C is 107%.

Question: And the viability, T/C (second compound 3.16 µM, first compound 10 µM)?
Answer: Its viability, T/C is 92.9%.

Question: What about the viability, T/C (second compound 10 µM, first compound 0.0316 µM) of the same compound?
Answer: The viability, T/C was 110%.

Question: And the viability, T/C (second compound 10 µM, first compound 0.1 µM)?
Answer: The viability, T/C was 97.2%.

Question: What about the viability, T/C (second compound 10 µM, first compound 0.316 µM) of the same compound?
Answer: The viability, T/C was 95.4%.

Question: What about the viability, T/C (second compound 10 µM, first compound 1 µM) of the same compound?
Answer: The viability, T/C was 91.9%.

Question: And the viability, T/C (second compound 10 µM, first compound 3.16 µM)?
Answer: The viability, T/C was 94.7%.

Question: What about the viability, T/C (second compound 10 µM, first compound 10 µM) of the same compound?
Answer: The viability, T/C was 95.6%.

Question: Which results are given for `CC(=O)O[C@H]1C(=O)[C@@]2(C)[C@H]([C@H](OC(=O)c3ccccc3)[C@]3(O)C[C@H](OC(=O)[C@H](O)[C@@H](NC(=O)c4ccccc4)c4ccccc4)C(C)=C1C3(C)C)[C@]1(OC(C)=O)CO[C@@H]1C[C@@H]2O` + Cc1cccc(N(C)C(=O)C2C(O)CCN2c2nc(C)cc(C(F)(F)F)c2C#N)c1?
Answer: IC50 (second compound 0.0316 µM): < 9.49 nM; IC50 (second compound 0.1 µM): < 9.49 nM; IC50 (second compound 0.316 µM): 10.4 nM; IC50 (second compound 1 µM): < 9.49 nM; IC50 (second compound 3.16 µM): < 9.49 nM; IC50 (second compound 10 µM): 11.1 nM; viability, T/C [1]: 40.2%; viability, T/C [2]: 22.1%; viability, T/C [3]: 22%; viability, T/C [4]: 19.8%; viability, T/C [5]: 18.5%; viability, T/C [6]: 23.1%; viability, T/C [7]: 46.9%; viability, T/C [8]: 29.2%; viability, T/C [9]: 21.6%; viability, T/C [10]: 27.5%; viability, T/C [11]: 24.6%; viability, T/C [12]: 26.7%; viability, T/C [13]: 52.2%; viability, T/C [14]: 25.1%; viability, T/C [15]: 24.4%; viability, T/C [16]: 23.9%; viability, T/C [17]: 20.8%; viability, T/C [18]: 24.8%; viability, T/C [19]: 45.4%; viability, T/C [20]: 29.2%; viability, T/C [21]: 22.4%; viability, T/C [22]: 18.9%; viability, T/C [23]: 26.1%; viability, T/C [24]: 28.2%; viability, T/C [25]: 44.1%; viability, T/C [26]: 24.4%; viability, T/C [27]: 32.5%; viability, T/C [28]: 27.6%; viability, T/C [29]: 41.8%; viability, T/C [30]: 28.9%; viability, T/C [31]: 54.7%; viability, T/C [32]: 19.3%; viability, T/C [33]: 21.2%; viability, T/C [34]: 25.3%; viability, T/C [35]: 21.4%; viability, T/C [36]: 15.6%

Question: Which results are given for `CC(=O)O[C@H]1C(=O)[C@@]2(C)[C@H]([C@H](OC(=O)c3ccccc3)[C@]3(O)C[C@H](OC(=O)[C@H](O)[C@@H](NC(=O)c4ccccc4)c4ccccc4)C(C)=C1C3(C)C)[C@]1(OC(C)=O)CO[C@@H]1C[C@@H]2O` + Nc1ccc(C#CCN(C(=O)Cc2ncc(C(F)(F)F)cc2C(F)(F)F)c2ccc(F)cc2)nn1?
Answer: IC50 (second compound 0.0316 µM): 11.9 nM; IC50 (second compound 0.1 µM): 10.5 nM; IC50 (second compound 0.316 µM): < 9.49 nM; IC50 (second compound 1 µM): < 9.49 nM; IC50 (second compound 3.16 µM): 10.4 nM; IC50 (second compound 10 µM): 11.6 nM; viability, T/C [1]: 54.8%; viability, T/C [2]: 30.9%; viability, T/C [3]: 24.9%; viability, T/C [4]: 22.9%; viability, T/C [5]: 25.1%; viability, T/C [6]: 22.2%; viability, T/C [7]: 52.2%; viability, T/C [8]: 27.6%; viability, T/C [9]: 31.1%; viability, T/C [10]: 17.8%; viability, T/C [11]: 18.7%; viability, T/C [12]: 24.2%; viability, T/C [13]: 51.6%; viability, T/C [14]: 31.1%; viability, T/C [15]: 21.7%; viability, T/C [16]: 24.8%; viability, T/C [17]: 34.9%; viability, T/C [18]: 36%; viability, T/C [19]: 49.1%; viability, T/C [20]: 26.9%; viability, T/C [21]: 23.5%; viability, T/C [22]: 20%; viability, T/C [23]: 23%; viability, T/C [24]: 31.8%; viability, T/C [25]: 50.5%; viability, T/C [26]: 43.2%; viability, T/C [27]: 27.8%; viability, T/C [28]: 28%; viability, T/C [29]: 20.7%; viability, T/C [30]: 23.5%; viability, T/C [31]: 53.8%; viability, T/C [32]: 31.9%; viability, T/C [33]: 27.2%; viability, T/C [34]: 26.5%; viability, T/C [35]: 28%; viability, T/C [36]: 24.6%
